Assay [1] concerns CHO-K1-GCGR cells + RAMP2. Nature of the assay: Ca^2+ response to ATP (control), RAMP2-expressing CHO-K1-GCGR cells. In kind it is cell-based, Chinese hamster. The settings on record: mean ± SEM; P = 0.77 vs control cells. As for the experimental part: (§1) Cells, plated overnight onto 96-well plates at 50,000 cells/well, were incubated in 75 µL Ca NW^PLUS working reagent for 1 hour at 37°C. […] Fluorescence signal was measured from 5 seconds before to 30 seconds after injection of agonist. The Ca^2+ response was expressed as a percentage of the adenosine triphosphate response (1 µM).

In assay [2] the test system is CHO-K1-GCGR cells. Nature of the assay: Ca^2+ response to ATP (control), CHO-K1-GCGR cells. Type of assay: cell-based, Chinese hamster. Particulars: mean ± SEM; P = 0.77 vs RAMP2-expressing cells. As for the experimental part: as §1
The test system of assay [3] is human GCGR coexpressed with RAMP2. The assay is described as follows: PathHunter β-arrestin recruitment, CHO-K1-βArr-GCGR cells with RAMP2. Type of assay: cell-based. Particulars: 90 min, 37°C; PathHunter β-galactosidase complementation; minimum of four separate experiments; Emax P < 0.0001 with vs without RAMP2.
Text: PathHunter CHO-K1 GCGR β-Arrestin GPCR assay (DiscoveRx Corporation Ltd.) was used to determine the effect of RAMP2 on the potency of GCGR ligands for recruitment of β-arrestin-1 to the GCGR. The CHO-K1-βArr-GCGR cells are engineered to detect the interaction of β-arrestin with the activated GCGR using β-galactosidase fragment complementation. CHO-K1-βArr-GCGR cells were stably transfected with or without RAMP2, as described previously. […] Fifty-five microliters of the PathHunter detection reagents was added to each well, and the microplate was incubated at room temperature for 60 minutes.
Assay [4] concerns CHO-K1-GCGR cells + RAMP2. The assay is described as follows: cAMP response to forskolin (control), RAMP2-expressing CHO-K1-GCGR cells. Type of assay: cell-based, Chinese hamster. Particulars: mean ± SEM; P = 0.20 vs control cells. As for the experimental part: (§2) CHO-K1 cells overexpressing the human GCGR (with or without RAMP2), plated onto 48-well plates at 40,000 cells/well, were incubated in serum-free media for 1 hour. Peptides were prepared in serum-free DMEM containing 100 µM of IBMX (3-isobutyl-1-methylxanthine; Sigma-Aldrich, United Kingdom). The cells were incubated for 30 minutes with the test peptide, after which media were replaced with 110 µL lysis buffer (0.1M HCl with 0.5% Triton-X). The lysate was assayed by using a direct cyclic adenosine monophosphate ELISA kit (Enzo Life Sciences, United Kingdom), as described in the assay manual. The cyclic adenosine monophosphate (cAMP) response was corrected for well protein levels (Bradford reagent; Sigma-Aldrich) and expressed as a percentage of response to 10 µM forskolin.

The subject of assay [5] is CHO-K1-GCGR cells. Nature of the assay: cAMP response to forskolin (control), CHO-K1-GCGR cells. Particulars: mean ± SEM; P = 0.20 vs RAMP2-expressing cells. In kind it is cell-based, Chinese hamster. As for the experimental part: as §2

Results on three molecules are retold here after PMC5551549 (Endocrinology, 2017).

“Also recorded” adds a separate entry of the source.

With `Nc1ncnc2c1ncn2[C@@H]1O[C@H](COP(=O)(O)OP(=O)(O)OP(=O)(O)O)[C@@H](O)[C@H]1O` [ATP, adenosine triphosphate], in assay [1], the “Ca^2+ response to ATP, RAMP2-expressing cells” value was 1.84 ± 0.10 relative fluorescence unit fold increase from baseline. In addition, in the assay on CHO-K1-GCGR cells [2], the “Ca^2+ response to ATP, control cells” value was 1.81 ± 0.08 relative fluorescence unit fold increase from baseline.

On to `CC[C@H](C)[C@H](NC(=O)[C@H](Cc1ccccc1)NC(=O)[C@H](CCC(=O)O)NC(=O)[C@H](CCCCN)NC(=O)[C@H](C)NC(=O)[C@H](C)NC(=O)[C@H](CCC(N)=O)NC(=O)CNC(=O)[C@H](CCC(=O)O)NC(=O)[C@H](CC(C)C)NC(=O)[C@H](Cc1ccc(O)cc1)NC(=O)[C@H](CO)NC(=O)[C@H](CO)NC(=O)[C@@H](NC(=O)[C@H](CC(=O)O)NC(=O)[C@H](CO)NC(=O)[C@@H](NC(=O)[C@H](Cc1ccccc1)NC(=O)[C@@H](NC(=O)CNC(=O)[C@H](CCC(=O)O)NC(=O)[C@H](C)NC(=O)[C@@H](N)Cc1c[nH]cn1)[C@@H](C)O)[C@@H](C)O)C(C)C)C(=O)N[C@@H](C)C(=O)N[C@@H](Cc1c[nH]c2ccccc12)C(=O)N[C@@H](CC(C)C)C(=O)N[C@H](C(=O)N[C@@H](CCCCN)C(=O)NCC(=O)N[C@@H](CCCNC(=N)N)C(N)=O)C(C)C` [GLP-1], for which the “β-arrestin recruitment in cells expressing both GCGR and RAMP2” value in assay [3] is listed as “did not occur; also recorded: completely abolished”.

In the case of `C=C[C@@]1(C)CC(=O)[C@]2(O)[C@@]3(C)[C@@H](O)CCC(C)(C)[C@@H]3[C@H](O)[C@H](OC(C)=O)[C@@]2(C)O1` [forskolin], the “cAMP response to forskolin, RAMP2-expressing cells” value in assay [4] worked out at 0.140 ± 0.01 relative absorbance units. Moreover, the “cAMP response to forskolin, control cells” value in the assay on CHO-K1-GCGR cells [5] turned out to be 0.136 ± 0.01 relative absorbance units.
